What was measured:
[1] = target: T1, RET (Homo sapiens, UniProt P07949); assay: Kinase inhibition assay: RET; type: biochemical
T1 construct: truncated human FAK, RET, FLT3, JAK2, and LRRK2; purchased Carna Biosciences
T1 sequence (P07949 658-1114 limits assumed): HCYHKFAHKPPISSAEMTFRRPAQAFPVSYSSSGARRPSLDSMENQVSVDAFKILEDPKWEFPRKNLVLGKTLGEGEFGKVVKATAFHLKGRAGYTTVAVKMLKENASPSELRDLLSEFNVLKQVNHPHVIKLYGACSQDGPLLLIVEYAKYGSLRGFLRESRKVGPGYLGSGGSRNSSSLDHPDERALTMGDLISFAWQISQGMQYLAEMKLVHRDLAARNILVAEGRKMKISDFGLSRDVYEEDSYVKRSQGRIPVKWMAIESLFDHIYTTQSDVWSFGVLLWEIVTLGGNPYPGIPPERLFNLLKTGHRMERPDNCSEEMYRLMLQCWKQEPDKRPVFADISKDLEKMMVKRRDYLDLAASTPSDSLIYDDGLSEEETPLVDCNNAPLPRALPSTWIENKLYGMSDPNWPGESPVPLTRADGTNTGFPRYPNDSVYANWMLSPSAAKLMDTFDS

[2] = target: T2, FAK (Homo sapiens, UniProt Q05397); assay: Kinase inhibition assay: FAK; type: biochemical; details: at 1 μM concentration
T2 construct: truncated human FAK, RET, FLT3, JAK2, and LRRK2; purchased Carna Biosciences
Description: (§1) Compounds of the present invention were tested for their capacity to inhibit a kinase panel which includes, but are not limited to, spleen tyrosine kinase (SYK), zeta-chain-associated protein kinase 70 (ZAP70), PTK2B protein tyrosine kinase 2 (PYK2), focal adhesion kinase (FAK), provirus integration of maloney kinase 1 (PIM1), rearranged during transfection kinase (RET), Fms-like tyrosine kinase 3 (FLT3), Janus kinase 2 (JAK2), and leucine-rich repeat kinase 2 (LRRK2).
(§2) Inhibition of SYK, ZAP70, PYK2, FAK, PIM1, RET, FLT3, JAK2 and LRRK2 Kinase Activity
(§3) Compounds of the invention were initially diluted to 10 mM in 100% DMSO (CALBIOCHEM™) for storage and made into kinase buffer solution to create a compound concentration ranging from 1 uM and 10 uM. Serial dilutions of compounds of the invention were dispensed into a 96-well plate (GREINER BIOSCIENCES™) at 6 μL each. Purified full-length human SYK, ZAP70, PIM1, PYK2 and truncated human FAK, RET, FLT3, JAK2, and LRRK2 (CARNA BIOSCIENCES™) were diluted in kinase buffer and added to the compound solutions and pre-incubated for 30 minutes at room temperature (1 hour for PYK2). […] The reaction mixture was incubated for 1 hour (2 hours for PYK2). Following the incubation, the stop solution made with EDTA, water, and Lance detection buffer ([…]™) was added (12μL each) to stop phosphorylation. […] The IC50 value of test compound was calculated at Gradpad Prism 5 unless specified otherwise.

[3] = target: T3, ZAP70 (Homo sapiens, UniProt P43403); assay: Kinase inhibition assay: ZAP70; type: biochemical; details: at 1 μM concentration
T3 construct: Purified full-length human SYK, ZAP70, PIM1, PYK2; purchased Carna Biosciences
T3 sequence (P43403 1-619): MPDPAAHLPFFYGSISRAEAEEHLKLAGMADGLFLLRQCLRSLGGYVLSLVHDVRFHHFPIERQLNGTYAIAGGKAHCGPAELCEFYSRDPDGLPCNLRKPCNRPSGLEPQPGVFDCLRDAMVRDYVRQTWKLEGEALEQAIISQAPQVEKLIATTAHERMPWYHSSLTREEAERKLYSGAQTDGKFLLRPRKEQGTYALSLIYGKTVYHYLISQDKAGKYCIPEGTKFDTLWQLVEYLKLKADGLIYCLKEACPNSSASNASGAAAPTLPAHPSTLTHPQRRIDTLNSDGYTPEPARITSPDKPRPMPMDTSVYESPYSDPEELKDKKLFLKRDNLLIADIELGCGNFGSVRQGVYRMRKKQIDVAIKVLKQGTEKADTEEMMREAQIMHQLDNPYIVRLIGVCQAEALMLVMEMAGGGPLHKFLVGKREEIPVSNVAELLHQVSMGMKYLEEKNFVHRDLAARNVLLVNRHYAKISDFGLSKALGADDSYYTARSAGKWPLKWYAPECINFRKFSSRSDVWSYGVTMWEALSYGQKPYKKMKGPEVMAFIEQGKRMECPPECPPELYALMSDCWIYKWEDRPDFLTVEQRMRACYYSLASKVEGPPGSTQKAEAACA
Description: as §1, §2, §3

[4] = target: T4, JAK3 (Homo sapiens, UniProt P52333); assay: In vitro kinase inhibition profile (Ambit Biosciences); type: binding; details: reported as percent control, lower numbers indicate stronger activities
T4 construct: JAK3 (JH1 domain-catalytic); purchased Ambit Biosciences
Description: (§4) Up to 518 different kinases have been identified in humans. To determine the scope of inhibitory effects of a representative compound of Formula (I) on known kinases, Compound 82 was tested against 104 commercially available kinases (Ambit Biosciences™). 104 kinases included ABL1(E255K)-phosphorylated, ABL1(T315I)-phosphorylated, ABL1-phosphorylated, ACVR1B, ADCK3, AKT1, AKT2, ALK, AURKA, AURKB, AXL, BMPR2, BRAF, BRAF(V600E), BTK, CDK11, CDK2, CDK3, CDK7, CDK9, CHEK1, CSF1R, CSNK1D, CSNK1G2, DCAMKL1, DYRK1B, EGFR, EGFR(L858R), EPHA2, ERBB2, ERBB4, ERK1, FAK, FGFR2, FGFR3, FLT1, FLT3, FLT4, GSK3B, IGF1R, IKK-α, IKK-β, INSR, JAK2(JH1domain-catalytic), JAK3 (JH1 domain-catalytic), JNK 1, JNK2, JNK3, KIT, KIT(D816V), KIT(V559D,T6701), LKB1, LRRK2, LRRK2(G2019S), MAP3K4, MAPKAPK2, MARKS, MEK1, MEK2, MET, MKNK1, MKNK2, MLK1, MTOR, p38-alpha, p38-beta, PAK1, PAK2, PAK-4, PCTK1, PDGFRA, PDGFRB, PDPK1, PIK3C2B, PIK3CA, PIK3CG, PIM1, PIM2, PIM3, PKAC-alpha, PLK1, PLK3, PLK4, PRKCE, PYK2, RAF1, RET, R10K2, ROCK2, RSK2, SNARK, SRC, SRPK3, SYK, TAK1, TGFBR1, TIE2, TRKA, TSSK1B, TYK2(JH1domain-catalytic), ULK2, VEGFR2, YANK3 and ZAP70.
(§5) Inhibition activity of Compound 82 was reported as percent control where lower numbers indicate stronger activities.

[5] = target: T5, FLT3 (Homo sapiens, UniProt P36888); assay: as above; type: binding; details: reported as percent control, lower numbers indicate stronger activities
T5 construct: purchased Ambit Biosciences
Description: as §4, §5

[6] = target: T6, ABL1(T315I) (Homo sapiens, UniProt P00519, T315I); assay: as above; type: binding; details: reported as percent control, lower numbers indicate stronger activities
T6 construct: purchased Ambit Biosciences
Description: as §4, §5

[7] = target: T7, KIT(D816V) (Homo sapiens, UniProt P10721, D816V); assay: as above; type: binding; details: reported as percent control, lower numbers indicate stronger activities
T7 construct: purchased Ambit Biosciences
Description: as §4, §5

T2 sequence (Q05397 376-1052 limits assumed): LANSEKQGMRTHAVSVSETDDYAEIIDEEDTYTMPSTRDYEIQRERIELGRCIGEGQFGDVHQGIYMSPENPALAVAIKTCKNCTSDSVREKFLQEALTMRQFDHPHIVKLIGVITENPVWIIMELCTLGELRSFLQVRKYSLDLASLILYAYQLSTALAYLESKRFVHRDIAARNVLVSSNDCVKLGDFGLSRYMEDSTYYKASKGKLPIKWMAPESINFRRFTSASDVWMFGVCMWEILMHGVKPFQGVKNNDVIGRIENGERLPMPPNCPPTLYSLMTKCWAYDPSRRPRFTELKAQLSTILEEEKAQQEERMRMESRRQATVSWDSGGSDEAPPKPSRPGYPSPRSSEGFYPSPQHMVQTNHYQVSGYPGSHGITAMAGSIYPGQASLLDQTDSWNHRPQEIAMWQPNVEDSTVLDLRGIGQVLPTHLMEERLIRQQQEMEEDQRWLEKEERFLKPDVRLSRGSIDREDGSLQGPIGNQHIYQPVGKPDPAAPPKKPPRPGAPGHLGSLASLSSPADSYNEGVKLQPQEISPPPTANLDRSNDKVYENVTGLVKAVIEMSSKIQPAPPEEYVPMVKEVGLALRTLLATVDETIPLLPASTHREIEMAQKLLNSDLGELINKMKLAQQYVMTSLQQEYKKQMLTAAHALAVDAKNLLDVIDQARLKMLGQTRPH
T5 sequence (P36888 27-993): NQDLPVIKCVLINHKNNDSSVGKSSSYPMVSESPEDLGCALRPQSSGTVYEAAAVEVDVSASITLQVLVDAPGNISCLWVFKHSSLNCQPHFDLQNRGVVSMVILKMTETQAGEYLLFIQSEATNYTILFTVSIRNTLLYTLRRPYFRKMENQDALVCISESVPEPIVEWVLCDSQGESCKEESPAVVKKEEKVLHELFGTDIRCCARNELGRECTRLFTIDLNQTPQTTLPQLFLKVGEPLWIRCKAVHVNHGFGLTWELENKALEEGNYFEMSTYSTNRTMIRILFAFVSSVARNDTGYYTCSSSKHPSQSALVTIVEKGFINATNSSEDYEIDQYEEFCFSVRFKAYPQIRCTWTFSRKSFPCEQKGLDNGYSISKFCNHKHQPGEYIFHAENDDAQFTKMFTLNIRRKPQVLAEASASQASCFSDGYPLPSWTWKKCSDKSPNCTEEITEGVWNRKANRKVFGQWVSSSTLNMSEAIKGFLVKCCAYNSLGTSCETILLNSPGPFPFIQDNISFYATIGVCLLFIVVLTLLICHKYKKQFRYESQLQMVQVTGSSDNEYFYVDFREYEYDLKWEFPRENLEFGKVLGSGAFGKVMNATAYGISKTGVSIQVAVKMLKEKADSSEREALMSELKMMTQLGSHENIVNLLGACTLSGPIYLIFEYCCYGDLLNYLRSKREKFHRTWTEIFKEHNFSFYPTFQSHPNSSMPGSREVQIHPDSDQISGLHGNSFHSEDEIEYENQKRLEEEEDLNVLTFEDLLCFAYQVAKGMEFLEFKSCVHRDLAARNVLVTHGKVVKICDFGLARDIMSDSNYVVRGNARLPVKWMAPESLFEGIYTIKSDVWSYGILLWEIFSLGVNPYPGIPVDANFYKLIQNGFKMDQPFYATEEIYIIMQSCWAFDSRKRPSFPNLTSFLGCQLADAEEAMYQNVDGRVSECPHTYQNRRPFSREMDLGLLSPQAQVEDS
T4 sequence (P52333 822-1111 limits assumed): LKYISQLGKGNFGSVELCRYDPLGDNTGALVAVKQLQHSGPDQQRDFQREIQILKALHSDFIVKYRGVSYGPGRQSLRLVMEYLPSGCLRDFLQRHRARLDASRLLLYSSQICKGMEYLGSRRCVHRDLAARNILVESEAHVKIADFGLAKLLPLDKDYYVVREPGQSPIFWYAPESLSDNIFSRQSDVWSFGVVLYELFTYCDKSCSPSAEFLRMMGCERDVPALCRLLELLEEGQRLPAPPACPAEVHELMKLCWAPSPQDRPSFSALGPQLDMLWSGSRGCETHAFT
T7 sequence (P10721 26-976 D816V): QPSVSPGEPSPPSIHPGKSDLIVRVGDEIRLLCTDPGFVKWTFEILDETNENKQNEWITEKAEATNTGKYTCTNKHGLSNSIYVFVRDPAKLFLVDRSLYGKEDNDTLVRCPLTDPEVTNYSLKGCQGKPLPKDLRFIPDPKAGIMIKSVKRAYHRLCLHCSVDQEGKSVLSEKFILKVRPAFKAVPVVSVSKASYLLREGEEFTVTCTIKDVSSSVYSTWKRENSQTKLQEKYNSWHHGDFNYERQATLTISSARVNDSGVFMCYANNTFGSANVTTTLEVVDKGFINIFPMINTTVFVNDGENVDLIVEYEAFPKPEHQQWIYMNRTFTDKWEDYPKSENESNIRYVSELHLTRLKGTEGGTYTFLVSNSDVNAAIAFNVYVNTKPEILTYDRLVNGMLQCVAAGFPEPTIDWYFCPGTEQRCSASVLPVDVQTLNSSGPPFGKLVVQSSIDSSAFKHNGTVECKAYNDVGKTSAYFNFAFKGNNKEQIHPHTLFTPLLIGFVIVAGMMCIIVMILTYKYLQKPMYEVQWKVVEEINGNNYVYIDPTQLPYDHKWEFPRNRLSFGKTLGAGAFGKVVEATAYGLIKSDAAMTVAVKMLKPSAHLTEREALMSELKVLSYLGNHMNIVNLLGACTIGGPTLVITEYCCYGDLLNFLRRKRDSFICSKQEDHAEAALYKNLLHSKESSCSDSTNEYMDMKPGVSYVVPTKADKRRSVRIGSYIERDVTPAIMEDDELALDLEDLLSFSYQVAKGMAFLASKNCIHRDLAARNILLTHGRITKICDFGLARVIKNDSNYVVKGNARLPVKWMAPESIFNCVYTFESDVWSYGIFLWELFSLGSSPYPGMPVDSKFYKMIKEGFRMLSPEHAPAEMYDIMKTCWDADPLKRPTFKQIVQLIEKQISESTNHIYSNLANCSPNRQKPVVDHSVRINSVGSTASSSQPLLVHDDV

IC50 [1] [nM] | inhibition at 1 µM [2] [%] | inhibition at 1 µM [3] [%] | % of control JAK3 [4] [%] | % of control [5] [%] | % of control ABL1(T315I) [6] [%] | % of control [7] [%] | Compound
50 | 70.7 | 54.6 | – | – | – | – | COc1cc(Nc2ncc(C)c(-n3cc(C)c(CO)c3)n2)cc(OC)c1OC [Compound 21, (4-methyl-1-(5-methyl-2-(3,4,5-trimethoxyphenylamino)pyrimidin-4-yl)-1H-pyrrol-3-yl)methanol]
– | – | – | 5.4 | 1.1 | 35 | 0.45 | Cc1cc(C)cc(Nc2ncc(F)c(-n3cc(C)c(CN4CC[C@@H](O)C4)c3)n2)c1 [Compound 82, (R)-1-((1-(2-(3,5-dimethylphenyl-amino)-5-fluoropyrimidin-4-yl)-4-methyl-1H-pyrrol-3-yl)methyl) pyrrolidin-3-ol]

— patent publication US8629132B2, “Kinase inhibitors” (Genosco, priority 2009, dated 2014)
